Results: patent EP1935986B1, “Luminogenic and fluorogenic compounds and methods to detect molecules or conditions” (priority 2005, dated 2006)

What was measured:
[1] = biological target: T1, CYP4A11 (Homo sapiens, UniProt Q02928); experiment: Two-step luminescent P450 screen of luciferin derivatives; assay type: biochemical; details: result in words
T1 construct: purchased Discovery Labware (BD/Gentest); host or cells: insect cell expression system (membrane fractions)
T1 sequence (Q02928 5-519): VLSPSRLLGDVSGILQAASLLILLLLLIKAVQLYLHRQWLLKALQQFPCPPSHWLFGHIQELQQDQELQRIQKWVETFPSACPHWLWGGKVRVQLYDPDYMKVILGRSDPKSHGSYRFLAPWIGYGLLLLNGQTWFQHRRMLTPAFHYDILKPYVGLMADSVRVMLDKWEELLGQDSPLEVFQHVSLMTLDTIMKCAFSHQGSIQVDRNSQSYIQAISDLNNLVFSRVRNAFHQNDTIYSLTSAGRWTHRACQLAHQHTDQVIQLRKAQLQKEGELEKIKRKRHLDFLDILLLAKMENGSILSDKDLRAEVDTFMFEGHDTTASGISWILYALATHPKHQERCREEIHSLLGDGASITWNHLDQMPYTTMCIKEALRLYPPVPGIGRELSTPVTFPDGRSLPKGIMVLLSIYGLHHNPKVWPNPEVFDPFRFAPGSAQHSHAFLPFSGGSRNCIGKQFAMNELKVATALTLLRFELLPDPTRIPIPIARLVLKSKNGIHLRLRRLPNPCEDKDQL
Protocol: (§1) P450s are Supersomes™ purchased from Discovery Labware (BD/Gentest). […] HLM is human liver microsomes.
(§2) 1X substrate concentration: 50 µM.

[2] = biological target: CYP3A4 (Homo sapiens, UniProt P08684); experiment: as above; details: result in words
[3] = biological target: T2, CYP4F12 (Homo sapiens, UniProt Q9HCS2); experiment: as above; assay type: biochemical; details: result in words
T2 construct: purchased Discovery Labware (BD/Gentest); host or cells: insect cell expression system (membrane fractions)
T2 sequence (Q9HCS2 1-524): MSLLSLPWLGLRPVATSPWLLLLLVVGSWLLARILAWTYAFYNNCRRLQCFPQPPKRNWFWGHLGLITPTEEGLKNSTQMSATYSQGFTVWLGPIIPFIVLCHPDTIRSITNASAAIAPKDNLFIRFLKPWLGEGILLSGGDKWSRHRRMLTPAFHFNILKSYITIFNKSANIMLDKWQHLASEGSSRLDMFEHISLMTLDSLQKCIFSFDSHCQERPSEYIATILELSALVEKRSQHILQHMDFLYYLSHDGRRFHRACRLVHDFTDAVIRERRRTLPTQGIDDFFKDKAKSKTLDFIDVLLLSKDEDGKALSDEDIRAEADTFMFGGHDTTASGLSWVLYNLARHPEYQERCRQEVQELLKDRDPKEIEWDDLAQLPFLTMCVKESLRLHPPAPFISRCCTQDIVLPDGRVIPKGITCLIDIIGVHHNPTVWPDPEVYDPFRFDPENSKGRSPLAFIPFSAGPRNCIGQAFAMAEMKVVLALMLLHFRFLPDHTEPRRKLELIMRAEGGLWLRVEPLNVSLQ
Protocol: as §1, §2

[4] = test system: CYP3A subfamily, CYP3A4, CYP3A5 and CYP3A7; experiment: Two-step luminescent P450 screen of luciferin derivatives, selectivity for the CYP3A subfamily; assay type: biochemical, human; details: result in words
Protocol: as §1, §2

[5] = test system: luciferase; experiment: No-enzyme control: activity of luciferase towards the luciferin derivative (background luminescence); details: on a BMG luminometer; minus P450
Protocol: The reactions (Table 1) were assembled by first adding the water and 1 M BisTris solutions in individual 0.5 ml microfuge tubes, then adding the other components except for the GST #3 solution. Finally, the GST #3 (Figure 12) solution was added to the reactions, the resulting solution was mixed, and the time of addition noted. […]
The GST #3 addition was performed last and the solutions were mixed immediately after addition of GST #3. […] After mixing, the light produced by the solution was measured using a Turner TD 20/20 luminometer.
After assembly, the enzyme stock solutions were diluted 1:10 into 10 mM HEPES, pH 7.5 and the following additions were made to the reactions.
A 5 µl sample of the luciferol DMF solution was added to each of the reactions above and a timer was started upon the addition of the first luciferol/DMF solution to reaction 1. All reactions were kept at room temperature.
After incubating 5 minutes at room temperature, the light produced by these samples was measured using a Turner TD 20 luminometer.
To initiate the conversions, 5 µl of luciferol solution was added to reactions […], 6-9, and 11-15, and 10 µl of luciferol was added to reactions 5 and 10 and the tubes mixed after that addition. Immediately after luciferol addition to reaction 1, a timer was started and the time of luciferol addition to the other tubes noted. After mixing, reaction 11-15 were placed at 37°C.
After incubating 10 minutes at room temperature, the light produced by these samples was read using a Turner TD 20 luminometer (Table 18).
To initiate Step 1, 45 µl of enzyme and buffer were added to each well.
Solution A and Solution B are components of the NADPH Regeneration System (V9510, Promega Corp., Madison WI). […] Solution B contains 40 units/ml glucose-6-phosphate dehydrogenase in 5 mM citrate pH 5.5.

[6] = biological target: T3, CYP2C19 (Homo sapiens, UniProt P33261); experiment: Two-step luminescent P450 screen of luciferin derivatives; assay type: biochemical; details: result in words
T3 construct: purchased Discovery Labware (BD/Gentest); host or cells: insect cell expression system (membrane fractions)
Protocol: as §1, §2
(§3) For Figure 20, 1 or 5 picomoles of recombinant CYP2D6 or CYP2C19 membrane fractions from an insect cell expression system (SupersomesTM, Discovery Labware) were incubated at 37°C for 60 minutes with 200 µM D-luciferin 6' methyl ether (luciferin-ME) in 50 mM (CYP2C19) or 100 mM (CYP2D6) KPO4 (pH 7.4) with an NADPH regenerating system (as described above) in a volume of 50 µl. […] For Figure 20, the panel of human P450s was screened as described above.

[7] = biological target: T4, CYP1A2 (Homo sapiens, UniProt P05177); experiment: as above; assay type: biochemical; details: 50 µM substrate, 1 pmole P450; result in words
T4 construct: purchased Discovery Labware (BD/Gentest); host or cells: insect cell expression system (membrane fractions)
T4 sequence (P05177 2-516 limits assumed): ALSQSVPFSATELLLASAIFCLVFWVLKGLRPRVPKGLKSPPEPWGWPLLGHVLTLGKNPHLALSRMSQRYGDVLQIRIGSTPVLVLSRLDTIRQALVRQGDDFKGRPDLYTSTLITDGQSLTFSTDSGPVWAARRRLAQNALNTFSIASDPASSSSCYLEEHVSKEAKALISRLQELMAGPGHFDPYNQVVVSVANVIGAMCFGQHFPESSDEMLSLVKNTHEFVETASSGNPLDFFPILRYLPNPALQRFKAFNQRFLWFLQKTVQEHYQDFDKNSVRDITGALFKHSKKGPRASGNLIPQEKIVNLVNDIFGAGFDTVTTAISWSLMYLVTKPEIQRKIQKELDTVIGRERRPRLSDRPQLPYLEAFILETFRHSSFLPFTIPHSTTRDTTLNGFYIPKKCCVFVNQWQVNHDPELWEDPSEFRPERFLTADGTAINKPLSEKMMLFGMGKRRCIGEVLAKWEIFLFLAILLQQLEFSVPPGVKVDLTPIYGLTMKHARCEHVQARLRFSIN
Protocol: as §1, §2

[8] = biological target: T5, CYP1A1 (Homo sapiens, UniProt P04798); experiment: as above; details: 50 µM substrate, 1 pmole P450, 37°C 30 minutes; result in words
T5 sequence (P04798 1-512): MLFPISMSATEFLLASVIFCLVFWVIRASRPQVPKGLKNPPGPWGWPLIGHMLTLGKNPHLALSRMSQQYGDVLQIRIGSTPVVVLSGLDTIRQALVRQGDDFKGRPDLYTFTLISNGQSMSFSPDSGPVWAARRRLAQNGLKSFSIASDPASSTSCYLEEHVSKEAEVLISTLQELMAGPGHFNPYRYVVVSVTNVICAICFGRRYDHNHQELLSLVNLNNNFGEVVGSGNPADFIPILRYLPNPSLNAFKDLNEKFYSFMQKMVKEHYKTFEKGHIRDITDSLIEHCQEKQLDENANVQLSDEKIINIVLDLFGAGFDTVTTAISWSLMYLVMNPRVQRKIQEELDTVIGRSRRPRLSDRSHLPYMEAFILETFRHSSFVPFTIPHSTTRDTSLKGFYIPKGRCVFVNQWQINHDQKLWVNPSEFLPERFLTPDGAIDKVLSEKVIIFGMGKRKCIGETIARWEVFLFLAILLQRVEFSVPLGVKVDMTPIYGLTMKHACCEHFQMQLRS

[9] = biological target: T6, CYP2D6 (Homo sapiens, UniProt P10635); experiment: as above; assay type: biochemical
T6 construct: purchased Discovery Labware (BD/Gentest); host or cells: insect cell expression system (membrane fractions)
Protocol: as §1, §2, §3

Sequence of CYP3A4 (P08684 2-503 limits assumed): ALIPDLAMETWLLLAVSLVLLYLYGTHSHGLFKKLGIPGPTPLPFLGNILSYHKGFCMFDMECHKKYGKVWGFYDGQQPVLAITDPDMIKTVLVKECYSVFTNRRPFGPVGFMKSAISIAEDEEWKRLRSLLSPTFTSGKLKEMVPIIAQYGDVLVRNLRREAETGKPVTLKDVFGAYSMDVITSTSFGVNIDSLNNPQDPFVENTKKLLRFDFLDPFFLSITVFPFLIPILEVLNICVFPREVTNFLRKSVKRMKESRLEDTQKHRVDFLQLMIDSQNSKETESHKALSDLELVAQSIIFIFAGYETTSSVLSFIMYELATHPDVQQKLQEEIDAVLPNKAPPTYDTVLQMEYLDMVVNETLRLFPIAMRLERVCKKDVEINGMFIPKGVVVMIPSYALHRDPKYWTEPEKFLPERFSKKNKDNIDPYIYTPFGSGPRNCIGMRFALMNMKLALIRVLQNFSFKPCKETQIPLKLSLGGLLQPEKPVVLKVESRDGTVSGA
T6 sequence (P10635 whole entry): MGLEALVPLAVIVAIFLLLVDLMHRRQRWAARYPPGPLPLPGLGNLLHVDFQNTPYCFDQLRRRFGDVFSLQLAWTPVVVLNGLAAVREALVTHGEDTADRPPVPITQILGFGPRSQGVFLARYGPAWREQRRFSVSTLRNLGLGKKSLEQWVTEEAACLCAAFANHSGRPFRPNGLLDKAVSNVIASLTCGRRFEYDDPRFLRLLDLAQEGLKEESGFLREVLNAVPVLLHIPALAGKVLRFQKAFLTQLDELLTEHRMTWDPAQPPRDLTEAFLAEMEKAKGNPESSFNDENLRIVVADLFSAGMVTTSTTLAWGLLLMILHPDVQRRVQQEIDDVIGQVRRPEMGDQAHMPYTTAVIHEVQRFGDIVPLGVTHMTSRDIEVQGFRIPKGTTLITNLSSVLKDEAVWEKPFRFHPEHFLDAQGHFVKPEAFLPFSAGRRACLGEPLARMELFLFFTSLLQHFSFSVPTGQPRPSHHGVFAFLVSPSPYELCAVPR
T3 sequence (P33261 whole entry): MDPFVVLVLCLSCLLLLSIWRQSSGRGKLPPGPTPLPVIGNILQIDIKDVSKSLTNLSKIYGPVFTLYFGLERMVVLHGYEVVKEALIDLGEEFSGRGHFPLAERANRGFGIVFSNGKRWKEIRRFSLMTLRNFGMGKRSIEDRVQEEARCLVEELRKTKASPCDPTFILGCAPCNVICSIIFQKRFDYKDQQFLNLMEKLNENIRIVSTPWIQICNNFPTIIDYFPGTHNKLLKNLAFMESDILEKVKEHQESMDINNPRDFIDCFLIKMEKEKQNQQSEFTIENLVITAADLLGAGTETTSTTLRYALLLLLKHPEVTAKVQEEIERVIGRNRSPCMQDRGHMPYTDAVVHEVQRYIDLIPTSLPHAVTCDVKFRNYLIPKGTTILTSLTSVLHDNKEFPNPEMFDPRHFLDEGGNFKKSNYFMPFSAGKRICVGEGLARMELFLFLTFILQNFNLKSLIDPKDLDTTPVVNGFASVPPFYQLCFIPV

With “2-(7-methyoxy-quinoxalin-2-yl)-4-5-dihydro-thiazole-4-carboxylic acid [quinoxalylluciferin 6-methyl ether]” the “P450 activity / selectivity with the derivative as substrate” value (shortened to “P450 activity / selectivity”) [1] was “substrate”.
Cc1cc(C)c(COc2ccc3nc(C4=N[C@@H](C(=O)O)CS4)sc3c2)c(C)c1 [6'(2,4,6-trimethylbenzyloxy)-luciferin, Luciferin 6-(2,4,6-trimethylbenzyl) ether] was tested, and the “P450 activity / selectivity” value [2] was “substantial activity”, the “P450 activity / cross reactivity with the derivative as substrate” value (“P450 activity / cross reactivity” for short) [3] was “did not show substantial cross reactivity” and the “selectivity for three members of the CYP3A subfamily” value (shortened to “selectivity for three members”) [4] was “selective”.
O=C(O)[C@H]1CSC(c2nc3ccc(OCc4cc(C(F)(F)F)ccc4C(F)(F)F)cc3s2)=N1 [6'(2,5-ditrifluoromethylbenzyloxy)-luciferin] was tested, and the “selectivity for three members” value [4] was “selective”.
In the case of O=C(O)[C@H]1CSC(c2nc3ccc(OCc4ccccc4C(F)(F)F)cc3s2)=N1 [6'(o-trifluoromethylbenzyloxy)-luciferin, Luciferin 2-trifluoromethylbenzyl ether], the “P450 activity / selectivity” value [2] is reported as “substantial activity”, the “P450 activity / cross reactivity” value [3] is reported as “did not show substantial cross reactivity” and the “selectivity for three members” value [4] is reported as “selective”.
With O=C(O)[C@H]1CSC(c2nc3ccc(OCc4c(F)c(F)c(F)c(F)c4F)cc3s2)=N1 [6'-(2,3,4,5,6-pentafluorobenzyloxy)-luciferin] the “P450 activity / selectivity” value [2] was “substantial activity”, the “P450 activity / cross reactivity” value [3] was “did not show substantial cross reactivity” and the “selectivity for three members” value [4] was “selective”. For the same molecule, the background luminescence [5] was “about 900 RLU”.
For O=C(O)[C@H]1CSC(c2ccc3cc(OCOCc4ccccc4)ccc3n2)=N1 [6'benzyloxymethoxy-quinolylluciferin, quinolinyl luciferin benzyloxymethyl ether], the “selectivity for three members” value [4] was “selective”.
In the case of O=C(O)[C@H]1CSC(c2nc3ccc(OCc4c(F)c(F)c(F)c(CN5CCN(c6ccccc6)CC5)c4F)cc3s2)=N1 [LucPPXE4F, 6'-(2,3,4,6-tetrafluoro-5-((4-phenylpiperizin-1-yl)methyl)benzyloxy)-luciferin], the “P450 activity / selectivity” value [2] is reported as “substantial activity”, the “P450 activity / cross reactivity” value [3] is reported as “did not show substantial cross reactivity” and the “selectivity for three members” value [4] is reported as “selective”.
For O=C(O)[C@H]1CSC(c2nc3ccc(OCc4cccc(CN5CCN(c6ccccc6)CC5)c4)cc3s2)=N1 [LucPPXE, Luciferin 3-(4-phenylpiperazin-1-yl)methylbenzyl ether], the “P450 activity / selectivity” value [2] was “substantial activity”, the “competition at the substrate binding sites on CYP3A4” value [2] was “competitive at 2 of the 3 substrate binding sites” and the “sensitivity of the reaction with 3A4 to DMSO” value [2] was “insensitive to DMSO at commonly used concentrations”. The “P450 activity / cross reactivity” value ([3]; listed as 6'(3-((4-phenylpipenzin-1-yl))methyl)benzyloxy) luciferin) was “did not cross react”, the “selectivity for three members” value [4] was “selective” and the background luminescence [5] was “about 2200 RLU”.
For COc1ccc2cc(C3=N[C@@H](C(=O)O)CS3)ccc2c1 [Naphthylluciferin 6-methyl ether, naphthyl luciferin methyl ether], the “P450 activity / selectivity” value [1] was “substrate”.
COC(=O)[C@H]1CSC(c2nc3ccccc3s2)=N1 [carboxyl methyl ester of deoxyluciferin] was tested, and the “P450 activity / selectivity” value [6] was “substantial activity with CYP2C 19 and strong selectivity”.
For COc1ccc2nc(C3=NC(C(=O)OCc4cccnc4)CS3)sc2c1 (stereo not shown) [m-picolinyl ester of luciferin methyl ether], the “P450 activity / selectivity” value [7] was “showed a preference”, the “P450 activity / selectivity” value [8] was “showed a preference” and the “signal when the esterase was not added, relative to the plus esterase signal” value ([9]; purified recombinant CYP2D6 substantially free of carboxylesterases, 2 step assay) was “less than 10%”. For the same molecule, the “P450 activity / selectivity” value ([9]; result in words) was “showed a preference”.
Bis-luciferin-methylenediether was tested, and the “P450 activity / selectivity” value [8] was “selective”.
With N-benzyloxycarbonyl aminoluciferin the “P450 activity / selectivity” value [8] was “strong selectivity”.
“N-isobutoxycarbonyl-aminoluciferin [N-isobutoxycarbonyl aminolucifern]” was tested, and the “P450 activity / selectivity” value [8] was “strong selectivity”.
